As to `CC(=O)c1ccc(OCCCOc2cc([N+](=O)[O-])c(C)cc2Br)c(CCC(F)(F)F)c1O`, the melting point (as a rule, the temperature of the solid-liquid transition) was 106 to 109 °C.

Regarding `COC(=O)C(=O)NCCCCCC1CCSS1` (stereo not given), the melting point fell in the range of 42 to 43 °C.

`Cc1ccc(S(=O)(=O)N2CCC[C@@H]2C(=O)N[C@H](Cc2ccccc2)C(=O)O)cc1` returned a melting point of 71 to 75 °C.

`CCOC(=O)C(C)(C)Oc1ccc(CCCC(=O)NN(Cc2cc(F)cc(F)c2)C(N)=O)cc1` displayed a melting point of 108 to 109 °C.

On to `COCCc1sc2ncnc(N)c2c1-c1ccc(NC(=O)Cc2cccc(C)c2)cc1`, for which the melting point lay within 200 to 202 °C.

`CN1CCC(c2c[nH]c3ccc([N+](=O)[O-])cc23)C(F)C1` (stereo not given) had a melting point of 105 to 107 °C.

For `NS(=O)(=O)c1ccc(N2CCN(CCCC3OCCc4ccccc43)CC2)cc1` (racemic), the melting point was 177 to 178 °C.

The compound `CC(C)(C)OC(=O)NC12CCC1CNC2` (stereo not given) gave a melting point of 113 to 116 °C.

`CCCCc1nc2c(N)nc3ccc(OCC(=O)N(C)Cc4ccccc4)cc3c2n1C` displayed a melting point of 167 to 169 °C.

As to `COc1cc(Nc2c(C#N)cnc3cc(/C=C/C(=O)O)sc23)c(Cl)cc1Cl`, the melting point is greater than 250 °C.

Turning to `C#CCOc1ccc(-c2nc3cnccc3[nH]2)c(OC)c1`, the melting point came to 210 °C.

As for `CC(=O)CC(=O)Nc1ccc(C)cc1C`, the melting point worked out at 89 °C.

`COc1cccc(C(C[N+](=O)[O-])SC(=S)N(C)C)c1OC(C)=O` (stereo not given) showed a melting point of 124 to 126 °C.

Compound `C=C(C)C(=O)Oc1ccc(NS(C)(=O)=O)cc1` had a melting point of 129 to 131 °C.

For the compound `NC(=NOCC1CC1)c1c(F)cccc1C(F)(F)F`, the melting point was in the range of 63 to 64 °C.

`O=P(O)(O)C(O)(CCc1nccn1Cc1ccccc1)P(=O)(O)O` came in with a melting point of 238 °C.

`CS(=O)(=O)C(=C1CN(C(c2ccccc2)c2ccccc2)C1)c1cccc(F)c1` gave a melting point of 210 °C.

Take `Cc1cccc(Oc2c[nH]c(=O)[nH]c2=O)c1`: the melting point is 291 to 295 °C.

In turn, `CCNC(=O)c1cccc(C(F)(F)F)c1` registered a melting point of 98 to 99 °C.

Compound `CC(=O)Oc1c(Cl)ccc2c(-c3ccccc3)c(Sc3ccccc3)c(Sc3ccccc3)c(-c3ccccc3)c12` returned a melting point of 138 to 140 °C.

The compound `Cn1nc(-c2ccccc2)c(O)c1-c1ccccc1` had a melting point of 157 to 160 °C.

The compound `COC(=O)C1=C(C)NC(C)=C(c2nc(CS(=O)(=O)Cc3ccccc3)no2)C1c1cccc([N+](=O)[O-])c1` (stereo not given) returned a melting point of 227 °C.

As to `CCOC(=O)CNCc1c(N)ccc(N2CCCC2)c1Cl`, the melting point lay within 69 to 70 °C.

The compound `O=C(c1ccccc1)c1ccc2c(c1)C1(c3ccccc3-2)c2ccccc2-c2ccc(C(=O)c3ccccc3)cc21` gave a melting point of 260 to 261 °C.

For the compound `Fc1ccc(-c2c3cccc(C(F)(F)F)c3nn2Cc2ccc(F)cc2Cl)cc1`, the melting point was 78 °C.

`Nc1cc(F)c(-n2ccc(=O)cc2)cc1N` gave a melting point of 227 to 230 °C.

As for `CC(C)(C)OC(=O)N1CCCCc2ccc(Cl)nc21`, the melting point is 166 to 168 °C.

Turning to `O=C1N(c2ccccc2)CCN1C1CCN(Cc2ccccc2)CC1`, the melting point fell in the range of 168 to 170 °C.

`COc1cccc2c1Oc1cc(Cl)ccc1C2` gave a melting point of 106 to 108 °C.

The compound `C[C@@H](N(CC(=O)O)C(=O)c1ccc(C(F)(F)F)cc1)[C@](O)(Cn1cncn1)c1ccc(F)cc1F` yielded a melting point of 132 to 135 °C.

As to `COC(=O)C1c2ccccc2N(C)c2ccc(Cl)cc21` (stereo not given), the melting point is 166 °C.

As to `CCC(CC)Nc1cc(C)nc(Oc2c(C)cc(Cl)cc2C)c1N`, the melting point lay within 72 to 74 °C.

`CCOC(=O)c1cc(O)c(C(=O)NCc2ccccc2)cc1O` had a melting point of 110 °C.

Take `CC1(C)CC(=O)C(S(=O)(=O)Cc2ccccc2)=C(O)C1`: the melting point was 87 to 89 °C.

Take `Nc1ccc(Oc2cccc(Oc3ccc(N)cc3)n2)cc1`: the melting point fell in the range of 152 to 154 °C.

Turning to `CCOC(=O)c1c(SCc2ccc(OC)cc2)c(CC)c2cc(Cl)ccn2c1=O`, the melting point lay within 159 to 160 °C.

For `[N-]=[N+]=NC1CCc2ccccc2C1NC(=O)OCc1ccccc1` (stereo not given), the melting point came out at 104 °C.

Regarding `Nc1c(Cl)cnnc1Cl`, the melting point is 176 to 178 °C.

With `CCCCC12CCC3C4CCC(=O)C=C4CCC3C1CCC2(O)CC` (stereo not given), the melting point fell in the range of 78 to 80 °C.

Consider `CCCCCCCCCCCCCCCC(=O)OCC(COCc1ccccc1)OC(=O)CCCCCCCCCCCCCCC` (stereo not given), for which the melting point is 40 to 42 °C.

Compound `O=c1c(Cl)c(Cl)cnn1CC=Cc1ccccc1` had a melting point of 98 to 99 °C.

The compound `CC1(C)CC(=O)c2c(SCc3ccccc3)sc(-c3cc[nH]n3)c2C1` had a melting point of 215 to 218 °C.

For `Nc1ncc(-c2noc(-c3cnn4c(C(F)(F)F)cc(-c5ccc(C(F)(F)F)cc5)nc34)n2)cn1`, the melting point came out at 254 °C.

For the compound `CCOC(=O)c1c(C)cc2c(=O)n(-c3cccc(Cl)c3)c(C)nc2c1C`, the melting point was 150 to 152 °C.

`CCCN(CCC)Cc1ccccc1P(=NC(=O)OCC)(c1ccccc1)c1ccccc1`: the melting point fell in the range of 102 to 104 °C.

Compound `CC(C)(C)OC(=O)N1CCC[C@H]1CNc1ccc2nccn2n1` yielded a melting point of 161 to 162 °C.

In turn, `Cc1cc(C)cc(COC(=O)[C@H](Cc2ccc3ccccc3c2)NC(=O)OC(C)(C)C)c1` displayed a melting point of 84 to 86 °C.

`COc1cc(OC)c(OC(=O)CS(=O)(=O)Nc2c(C(C)C)cccc2C(C)C)c(OC)c1` came in with a melting point of 167 to 170 °C.

On to `CCOC(=O)c1cccc(Nc2ncc3cc(-c4c(Cl)cccc4Cl)c(=O)n(C)c3n2)c1`, for which the melting point lay in the range of 238 to 240 °C.

`COc1ccc(CCN2CCC(NC(=O)C34CC5CC(CC(C5)C3)C4)C2)cc1` (stereo not given): the melting point lay in the range of 81 to 83 °C.

In turn, `CCOC(=O)c1ccsc1NC(=O)NC` registered a melting point of 83 to 87 °C.

For `O=C1CS(=O)(=O)c2ccccc21`, the melting point was 133 to 134 °C.

On to `N#CCc1cnn2ccc3c(c12)CCO3`, for which the melting point is 165 to 166 °C.

`CC(C)(C)OC(=O)N1CCC(NCc2cccc(NC(=O)c3ccc(F)cc3)n2)CC1` gave a melting point of 77.7 °C.

`CNCCCN(C)c1ccc2c(C(=O)NCC34CC5CC(CC(C5)C3)C4)c(Cl)ccc2n1`: the melting point fell in the range of 195 to 200 °C.

Regarding `COc1ccc(C(=O)C=CN(C)C)cc1`, the melting point lay in the range of 82 to 85 °C.

For `O=c1[nH]c2cc(C(F)(F)F)ccc2n(CCn2ncnn2)c1=O`, the melting point was found to be 280 °C.

`Cc1nc(-c2cc(CCc3ccccc3)no2)sc1C(=O)NCc1ccccc1` yielded a melting point of 114 to 115 °C.

In turn, `CSc1cc(CBr)cc(SC)c1` gave a melting point of 76 to 77 °C.

Take `O=C(Nc1n[nH]c2c(F)cccc12)c1ccccc1`: the melting point amounted to 232 °C.

Compound `Cc1nnc2n1-c1sc(CCc3ccc(CC(C)C)cc3)cc1C(c1ccccc1Cl)=NC2c1ccccc1` (stereo not given) yielded a melting point of 170 to 172 °C.

`CCCN(CCC)C1Cc2cc3c(cc2C1)C(=O)N(Cc1ccc(S(N)(=O)=O)cc1)C3=O` registered a melting point of 190 to 194 °C.

`CC(C)C(=O)Nc1ccc(C(=O)Nc2ccccc2N)cc1` yielded a melting point of 248 °C.

Compound `COC(=O)CNC(=O)c1ccc(I)cc1` had a melting point of 166 to 168 °C.

Compound `CCCCCCC#CCC#CCC#CCCCCCCC(=O)O` came in with a melting point of 57 to 58 °C.

The compound `CC(=O)n1ncc2c(O)cccc21` returned a melting point of 140 to 142 °C.

`O=C(O)c1ccc(C(c2ccccc2)(C(F)(F)F)C(F)(F)F)cc1` had a melting point of 153 to 155 °C.

`CCCCCCC/C=C/C(=O)NC1CCCCC1` showed a melting point of 94 to 96 °C.

Compound `OCCc1c[nH]c2ccc(O)cc12` registered a melting point of 98 to 102 °C.

On to `O=C1OC(=O)c2c1ccc1ncccc21`, for which the melting point was in the range of 247 to 250 °C.

Turning to `COc1cc2c3c4c(c(-c5ccccc5)cc3n(C)c2cc1CCCO)C(=O)NC4=O`, the melting point is 105 to 110 °C.

`O=C(NC1CCC(CCN2CCN(c3nccc4c3OCC4)CC2)CC1)C1CCOC1` (stereo not given) showed a melting point of 195 °C.

Compound `O=C(OCc1ccccc1)[C@@H]1COC(c2ccccc2OCc2ccccc2)=N1` displayed a melting point of 69 to 71 °C.

In turn, `N#Cc1cc(-c2ccccc2)[nH]c1Sc1ccc2ccccc2c1` returned a melting point of 93 to 94.4 °C.

`Cc1nc2ccccc2n1Cc1ccc(C(=O)O)c2ccccc12` yielded a melting point of 292 to 293 °C.

The compound `CCc1cnc(OCCOc2ncnc(NS(=O)(=O)c3ccc(C(C)(C)C)cc3)c2Oc2cccc(OC)c2)nc1` returned a melting point of 158 to 160 °C.

For the compound `CCOC(=O)C(O)=CC=C(SCc1ccccc1)C(=O)OCC`, the melting point was less than 40 °C.

Turning to `CCC(=CC(N)C(=O)O)CP(=O)(O)O` (stereo not given), the melting point was determined as 176 °C.

Compound `COc1ccc2c(c1OC)CCN(CCc1ccc(NC(=O)c3cccc4c(=O)c5cccc(OC)c5[nH]c34)cc1)C2` gave a melting point of 235 to 237 °C.

`O=C(NCc1ccccc1)C(Cc1c[nH]c2ccccc12)NC(=O)C(F)(F)F` (stereo not given): the melting point fell in the range of 186 to 188 °C.

The compound `COc1c(Cl)cc(N=C=S)cc1C(=O)Nc1c(C)cccc1C` displayed a melting point of 191 to 192 °C.

As for `COc1cc(OC)nc(-n2nc(SC)n(N)c2=O)n1`, the melting point came to 198 °C.

For `CC(O)(CC(=O)O)c1ccc(Oc2ccccc2)cc1` (stereo not given), the melting point is 137 to 138 °C.

`S=c1nc(-c2ccc(Cl)cc2Cl)[nH]n1Cc1ccccc1` returned a melting point of 169 to 170 °C.

Turning to `C=CCN(C)c1nc(-c2cc(OC)c(OC)c(OC)c2)nc2sc(C#N)c(C)c12`, the melting point fell in the range of 162 to 164 °C.

`O=C(CCCCCCS(=O)(=O)c1ccc2ccccc2c1)c1ncco1` registered a melting point of 75 to 76 °C.

As to `Cc1cnc2c(NC(=O)c3c(Cl)cccc3Cl)cccc2c1N1CCN(C)C1=O`, the melting point was found to be 288 °C.

As to `CC(C)=CC(=O)OC(COc1ccc(C(=O)c2ccccc2)c(O)c1)COc1ccc(C(=O)c2ccccc2)c(O)c1`, the melting point is 148 to 150 °C.

As for `CN1C(=O)C(F)N=C(c2ccccc2)c2cc(Cl)ccc21` (stereo not given), the melting point was in the range of 145 to 147 °C.

As to `COc1cc2ccccc2cc1OC`, the melting point fell in the range of 112 to 113 °C.

The values above are taken from a melting point compilation (Tetko et al.; mined from patent text by program, amines drawn as free bases though some values may be those of a salt).
